From patent US11814444B2, “Cyclic polypeptides for PCSK9 inhibition” (Ra Pharmaceuticals, Inc., priority 2018, dated 2023)
Numbered stars: 1 amine (or outer) side, 2 acyl side, 3 side chain; on linkers, the order of the positions; unused ones are H or OH. Bridge positions count the residues as written; N and C are the ends. Square brackets hold non-standard residues; d marks the D form. Peptide text beside a SMILES is read from it. * marks the point of attachment. Ala(1H-tetrazol-5-yl) = N[C@@H](Cc1nnn[nH]1)C(=O)O; Trp(7-aza) = N[C@@H](Cc1c[nH]c2ncccc12)C(=O)O; mXylylene = c1cc(C[*:1])cc(C[*:2])c1; NMeE = CN[C@@H](CCC(=O)O)C(=O)O; Tle = CC(C)(C)[C@H](N)C(=O)O; αMeV = CC(C)[C@](C)(N)C(=O)O; Dpg = CCCC(N)(CCC)C(=O)O; Iva = CC[C@](C)(N)C(=O)O; NMeA = CN[C@@H](C)C(=O)O; Ac5c = NC1(C(=O)O)CCCC1; Nva = CCC[C@H](N)C(=O)O; Ac4c = NC1(C(=O)O)CCC1; Ac3c = NC1(C(=O)O)CC1; Aib = CC(C)(N)C(=O)O; Ms = CS(=O)(=O)*; Mpa = O=C(O)CCS

Tests used:
[1] = molecular target: human PCSK9 / human LDLR EGFa domain interaction (Homo sapiens, UniProt Q8NBP7); assay: TR-FRET assay of inhibition of the PCSK9-LDLR protein-protein interaction; assay type: binding; conditions: 20 nM avitag-biotinylated human PCSK9, 20 nM his-tagged human LDLR EGFa domain, 2 hours, room temperature
In short: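 Half-maximal inhibition was derived by 4-parameter fitting of dose-response TR-FRET data. Each well held 20 nM His-LDLR EGFa, 20 nM avitag-biotinylated PCSK9, Eu-anti-6×His and Ulight-streptavidin (5 nM each) in 50 mM HEPES, 150 mM NaCl, 5 mM CaCl2, 0.01% BSA, 0.01% Surfactant P20, incubated 2 h at room temperature.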

PCSK9 = PCSK9 (Homo sapiens, UniProt Q8NBP7); assay: PCSK9 Alexa FRET Standard assay (displacement of AlexaFluor647 tagged cyclic peptide Reagent A); assay type: binding; conditions: 0.5 nM PCSK9, 20 nM AF cyclic peptide Reagent A
Method: A solution containing 1 nM biotinylated PCSK9+2.5 nM Lance Streptavidin Europium (Strep-Eu) was made in 50 mM HEPES pH 7.4, 0.15 M NaCl, 5 mM CaCl2), 0.01% BSA, and 0.01% Surfactant P20. A separate solution containing 40 nM of the AlexaFluor tagged cyclic peptide was made in the same buffer system. An Echo was used to transfer 0.750 ul of compound to an assay plate followed by the addition of 15 ul of PCSK9+Stept-Eu and 15 ul of AF peptide. The final assay volume was 30.750 ul containing 0.5 nM PCSK9, 1.25 nM Strep-Eu, and 20 nM AF cyclic peptide. The reaction was incubated at room temperature for at least two hours prior to fluorescence measurements using an Envision Multilabel Reader. IC50 values were determined by fitting data to a sigmoidal dose-response curve using nonlinear regression. Ki was then calculated from the IC50 and the KD of AF cyclic peptide. Counts (B-counts) of the europium-labeled PCSK9 were followed to observe if compounds were […]. A fall off of the B-counts likely indicated a false positive of inhibition. Data from this procedure was reported as “A=‘numerical value’ (nanomolar)”

Sequence of PCSK9 (Q8NBP7 153-692): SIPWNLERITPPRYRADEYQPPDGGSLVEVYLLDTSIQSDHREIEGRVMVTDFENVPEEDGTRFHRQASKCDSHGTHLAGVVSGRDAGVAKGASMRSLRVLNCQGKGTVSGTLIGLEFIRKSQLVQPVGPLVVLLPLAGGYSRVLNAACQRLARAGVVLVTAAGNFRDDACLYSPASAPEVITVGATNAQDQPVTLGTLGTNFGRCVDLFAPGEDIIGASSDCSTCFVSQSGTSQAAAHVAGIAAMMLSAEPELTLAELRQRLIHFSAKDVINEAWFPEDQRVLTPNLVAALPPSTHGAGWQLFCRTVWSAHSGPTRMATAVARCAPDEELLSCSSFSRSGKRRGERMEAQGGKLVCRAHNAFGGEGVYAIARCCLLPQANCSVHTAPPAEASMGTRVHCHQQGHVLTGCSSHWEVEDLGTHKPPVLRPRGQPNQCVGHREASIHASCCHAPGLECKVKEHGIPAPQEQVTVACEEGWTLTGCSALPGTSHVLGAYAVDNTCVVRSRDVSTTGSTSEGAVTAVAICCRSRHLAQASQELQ
Sequence of human PCSK9 / human LDLR EGFa domain interaction (Q8NBP7 153-692): as above
Sequence of human PCSK9 / human LDLR EGFa domain interaction (Q8NBP7 31-152 partner limits assumed): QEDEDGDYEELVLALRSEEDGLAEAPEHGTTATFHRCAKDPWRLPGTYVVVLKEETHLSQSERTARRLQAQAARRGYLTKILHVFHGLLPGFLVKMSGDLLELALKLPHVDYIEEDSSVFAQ

SMILES	IC50 [1] [µM]	IC50 (PCSK9) [µM]
CC[C@]1(C)NC(=O)[C@H](Cc2c[nH]c3ncccc23)NC(=O)[C@H]([C@@H](C)O)NC(=O)[C@@H]2CCCN2C(=O)[C@H](Cc2ccc(O)cc2)NC(=O)[C@H](C(C)(C)C)NC(=O)[C@@H](NC(C)=O)CSCc2cccc(c2)CSC[C@@H](C(N)=O)NC(=O)[C@H]([C@@H](C)O)NC(=O)[C@](C)(C(C)C)NC(=O)[C@H](Cc2ccc(O)cc2)NC(=O)[C@H](C)NC1=O [Compound 182] (Ac-C[Tle]YPT[Trp(7-aza)][Iva]AY[αMeV]TC-NH2; linker 1-12 via mXylylene)	21 to 50	1 to 21
CC(=O)N[C@H]1CSCc2cccc(c2)CSC[C@@H](C(N)=O)NC(=O)[C@H]([C@@H](C)O)NC(=O)[C@](C)(C(C)C)NC(=O)[C@H](Cc2ccc(O)cc2)NC(=O)[C@H](C)NC(=O)C2(CCC2)NC(=O)[C@H](Cc2c[nH]c3ncccc23)NC(=O)[C@H]([C@@H](C)O)NC(=O)[C@@H]2CCCN2C(=O)[C@H](Cc2ccc(O)cc2)NC(=O)[C@H](C(C)(C)C)NC1=O [Compound 183] (Ac-C[Tle]YPT[Trp(7-aza)][Ac4c]AY[αMeV]TC-NH2; linker 1-12 via mXylylene)	21 to 50	1 to 21
CC(=O)N[C@H]1CSCc2cccc(c2)CSC[C@@H](C(N)=O)NC(=O)[C@H]([C@@H](C)O)NC(=O)[C@](C)(C(C)C)NC(=O)[C@H](Cc2ccc(O)cc2)NC(=O)[C@H](C)NC(=O)C2(CCCC2)NC(=O)[C@H](Cc2c[nH]c3ncccc23)NC(=O)[C@H]([C@@H](C)O)NC(=O)[C@@H]2CCCN2C(=O)[C@H](Cc2ccc(O)cc2)NC(=O)[C@H](C(C)(C)C)NC1=O [Compound 184] (Ac-C[Tle]YPT[Trp(7-aza)][Ac5c]AY[αMeV]TC-NH2; linker 1-12 via mXylylene)	0.1 to 1	0.001 to 0.1
CC(=O)N[C@H]1CSCc2cccc(c2)CSC[C@H](C(N)=O)NC(=O)[C@H]([C@@H](C)O)NC(=O)[C@](C)(C(C)C)NC(=O)[C@H](Cc2ccc(O)cc2)NC(=O)[C@H](C)NC(=O)C2(CCC2)NC(=O)[C@H](Cc2c[nH]c3ncccc23)NC(=O)[C@H]([C@@H](C)O)NC(=O)[C@@H]2CCCN2C(=O)[C@H](Cc2ccc(O)cc2)NC(=O)[C@H](C(C)(C)C)NC1=O [Compound 185] (Ac-C[Tle]YPT[Trp(7-aza)][Ac4c]AY[αMeV]T[dC]-NH2; linker 1-12 via mXylylene)	0.001 to 0.1	0.001 to 0.1
CC(=O)N[C@H]1CSCc2cccc(c2)CSC[C@H](C(N)=O)NC(=O)[C@H]([C@@H](C)O)NC(=O)[C@](C)(C(C)C)NC(=O)[C@H](Cc2ccc(O)cc2)NC(=O)[C@H](C)NC(=O)C2(CCCC2)NC(=O)[C@H](Cc2c[nH]c3ncccc23)NC(=O)[C@H]([C@@H](C)O)NC(=O)[C@@H]2CCCN2C(=O)[C@H](Cc2ccc(O)cc2)NC(=O)[C@H](C(C)(C)C)NC1=O [Compound 186] (Ac-C[Tle]YPT[Trp(7-aza)][Ac5c]AY[αMeV]T[dC]-NH2; linker 1-12 via mXylylene)	0.001 to 0.1	0.001 to 0.1
CCCC1(CCC)NC(=O)[C@H](Cc2c[nH]c3ncccc23)NC(=O)[C@H]([C@@H](C)O)NC(=O)[C@@H]2CCCN2C(=O)[C@H](Cc2ccc(O)cc2)NC(=O)[C@H](C(C)(C)C)NC(=O)[C@@H](NC(C)=O)CSCc2cccc(c2)CSC[C@H](C(N)=O)NC(=O)[C@H]([C@@H](C)O)NC(=O)[C@](C)(C(C)C)NC(=O)[C@H](Cc2ccc(O)cc2)NC(=O)[C@H](C)NC1=O [Compound 188] (Ac-C[Tle]YPT[Trp(7-aza)][Dpg]AY[αMeV]T[dC]-NH2; linker 1-12 via mXylylene)	1 to 21	1 to 21

Results, then the compound that gave them:

IC50 [1] [µM]	IC50 (PCSK9) [µM]	SMILES
21 to 50	1 to 21	CNC(=O)[C@H]1CSCc2cccc(c2)CSC[C@H](NC(C)=O)C(=O)N[C@@H](C(C)(C)C)C(=O)N[C@@H](Cc2ccc(O)cc2)C(=O)N2CCC[C@H]2C(=O)N[C@@H]([C@@H](C)O)C(=O)N[C@@H](Cc2c[nH]c3ncccc23)C(=O)NC(C)(C)C(=O)N[C@@H](C)C(=O)N[C@@H](Cc2ccc(O)cc2)C(=O)N[C@@](C)(C(C)C)C(=O)N[C@@H]([C@@H](C)O)C(=O)N1 [Compound 189] (Ac-C[Tle]YPT[Trp(7-aza)][Aib]AY[αMeV]T[dC]-NHMe; linker 1-12 via mXylylene)
0.001 to 0.1	0.001 to 0.1	CC(=O)N[C@H]1CSCc2cccc(c2)CSC[C@H](C(N)=O)NC(=O)[C@H]([C@@H](C)O)NC(=O)[C@](C)(C(C)C)NC(=O)[C@H](Cc2ccc(O)cc2)NC(=O)[C@H](C)NC(=O)C2(CC2)NC(=O)[C@H](Cc2c[nH]c3ncccc23)NC(=O)[C@H]([C@@H](C)O)NC(=O)[C@@H]2CCCN2C(=O)[C@H](Cc2ccc(O)cc2)NC(=O)[C@H](C(C)(C)C)NC1=O [Compound 191] (Ac-C[Tle]YPT[Trp(7-aza)][Ac3c]AY[αMeV]T[dC]-NH2; linker 1-12 via mXylylene)
0.001 to 0.1	0.001 to 0.1	CC(C)[C@]1(C)NC(=O)[C@H](Cc2ccc(O)cc2)NC(=O)[C@H](C)NC(=O)C2(CCC2)NC(=O)[C@H](Cc2c[nH]c3ncccc23)NC(=O)[C@H]([C@@H](C)O)NC(=O)[C@@H]2CCCN2C(=O)[C@H](Cc2ccc(O)cc2)NC(=O)[C@H](C(C)(C)C)NC(=O)[C@@H](NS(C)(=O)=O)CSCc2cccc(c2)CSC[C@H](C(N)=O)NC(=O)[C@H]([C@@H](C)O)NC1=O [Compound 192] (Ms-C[Tle]YPT[Trp(7-aza)][Ac4c]AY[αMeV]T[dC]-NH2; linker 1-12 via mXylylene)
50 to 100	50 to 100	CCC[C@@H]1NC(=O)[C@H](Cc2ccc(O)cc2)NC(=O)[C@H](CCC(=O)O)NC(=O)[C@H](C)N(C)C(=O)[C@H](Cc2c[nH]c3ncccc23)NC(=O)[C@H]([C@@H](C)O)NC(=O)[C@H](Cc2c[nH]cn2)NC(=O)[C@H](Cc2ccc(O)cc2)NC(=O)[C@H](C(C)(C)C)NC(=O)CCSCc2cccc(c2)CSC[C@@H](C(N)=O)NC(=O)[C@H]([C@@H](C)O)NC1=O [Compound 207] ([Mpa][Tle]YHT[Trp(7-aza)][NMeA]EY[Nva]TC-NH2; linker 1-12 via mXylylene)
50 to 100	50 to 100	CCC[C@@H]1NC(=O)[C@H](Cc2ccc(O)cc2)NC(=O)[C@H](CCC(=O)O)N(C)C(=O)[C@H](CCC)NC(=O)[C@H](Cc2c[nH]c3ncccc23)NC(=O)[C@H]([C@@H](C)O)NC(=O)[C@H](Cc2c[nH]cn2)NC(=O)[C@H](Cc2ccc(O)cc2)NC(=O)[C@H](C(C)(C)C)NC(=O)CCSCc2cccc(c2)CSC[C@@H](C(N)=O)NC(=O)[C@H]([C@@H](C)O)NC1=O [Compound 208] ([Mpa][Tle]YHT[Trp(7-aza)][Nva][NMeE]Y[Nva]TC-NH2; linker 1-12 via mXylylene)
0.1 to 1	1 to 21	CCC[C@@H]1NC(=O)[C@H](Cc2c[nH]c3ncccc23)NC(=O)[C@H]([C@@H](C)O)NC(=O)[C@H](Cc2c[nH]cn2)NC(=O)[C@H](Cc2ccc(O)cc2)NC(=O)[C@H](C(C)(C)C)NC(=O)[C@@H](NC(C)=O)CSCc2cccc(c2)CSC[C@@H](C(N)=O)NC(=O)[C@H]([C@@H](C)O)NC(=O)[C@H](CCC)NC(=O)[C@H](Cc2ccc(O)cc2)NC(=O)[C@H](CCC(=O)O)NC1=O [Compound 235] (Ac-C[Tle]YHT[Trp(7-aza)][Nva]EY[Nva]TC-NH2; linker 1-12 via mXylylene)
0.1 to 1	1 to 21	CCC[C@@H]1NC(=O)[C@H](Cc2ccc(O)cc2)NC(=O)[C@H](CCC(=O)O)NC(=O)[C@H](CCC)NC(=O)[C@H](Cc2c[nH]c3ncccc23)NC(=O)[C@H]([C@@H](C)O)NC(=O)[C@H](Cc2c[nH]cn2)NC(=O)[C@H](Cc2ccc(O)cc2)NC(=O)[C@H](C(C)(C)C)NC(=O)CCSCc2cccc(c2)CSC[C@@H](C(N)=O)NC(=O)[C@H](Cc2c[nH]cn2)NC1=O [Compound 247] ([Mpa][Tle]YHT[Trp(7-aza)][Nva]EY[Nva]HC-NH2; linker 1-12 via mXylylene)
0.1 to 1	1 to 21	CCC[C@@H]1NC(=O)[C@H](Cc2c[nH]c3ncccc23)NC(=O)[C@H]([C@@H](C)O)NC(=O)[C@H](Cc2c[nH]cn2)NC(=O)[C@H](Cc2ccc(O)cc2)NC(=O)[C@H](C(C)(C)C)NC(=O)CCSCc2cccc(c2)CSC[C@@H](C(N)=O)NC(=O)[C@H]([C@@H](C)O)NC(=O)[C@H](CCC)NC(=O)[C@H](Cc2ccc(O)cc2)NC(=O)[C@H](Cc2nnn[nH]2)NC1=O [Compound 253] ([Mpa][Tle]YHT[Trp(7-aza)][Nva][Ala(1H-tetrazol-5-yl)]Y[Nva]TC-NH2; linker 1-12 via mXylylene)
0.1 to 1	1 to 21	CCC[C@@H]1NC(=O)[C@H](Cc2c[nH]c3ncccc23)NC(=O)[C@H]([C@@H](C)O)NC(=O)[C@H](Cc2c[nH]cn2)NC(=O)[C@H](Cc2ccc(O)cc2)NC(=O)[C@H](C(C)(C)C)NC(=O)CCSCc2cccc(c2)CSC[C@@H](C(N)=O)NC(=O)[C@H]([C@@H](C)O)NC(=O)[C@H](CCC)NC(=O)[C@H](Cc2ccc(O)cc2)NC(=O)[C@H](CC(=O)O)NC1=O [Compound 254] ([Mpa][Tle]YHT[Trp(7-aza)][Nva]DY[Nva]TC-NH2; linker 1-12 via mXylylene)
